Assay results reported in patent US6887468B1 (Board of Regents, The University of Texas System, priority 1999, dated 2005).

Columns and labels:
[1] = target: T1, VEGF alone or VEGF associated with sFlk-1 (VEGF:Flk-1) (Homo sapiens, UniProt P15692); assay: Indirect and capture ELISA for reactivity with VEGF alone or VEGF associated with sFlk-1; assay type: binding; conditions: VEGF alone or VEGF:Flk-1
T1 sequence (P15692 27-191 isoform P15692-4): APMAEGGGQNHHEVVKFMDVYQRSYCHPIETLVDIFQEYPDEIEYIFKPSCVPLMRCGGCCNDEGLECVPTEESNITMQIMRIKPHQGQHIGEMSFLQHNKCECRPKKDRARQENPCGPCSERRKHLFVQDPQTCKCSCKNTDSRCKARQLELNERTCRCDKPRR
Experimental: The Flk-1/SEAP protein was produced and purified as described by Tessler etal. (1994). Basically, the extracellular domain of Flk-1 (sFlk-1) was produced in Spodoptera frugiperda (Sf9) cells and purified by immunoaffinity techniques utilizing a monoclonal anti-Flk-1 antibody (1A8). sFlk-1 was then biotinylated and bound on avidin-coated plates.
The reactivity was determined as described above for the initial screening.
A capture ELISA was also developed. In the capture ELISA, microtiter plates were coated overnight at 4° C. with 100 ng of the indicated antibody. […] Streptavidin conjugated to peroxidase (Kirkegaard & Perry Laboratories, Inc.), diluted 1:2000, was used as a second layer and developed.

[2] = target: T2, denatured VEGF121 and VEGF165 (Homo sapiens, UniProt P15692); assay: Western blot analysis of anti-VEGF antibodies; assay type: binding; conditions: reducing and non-reducing conditions
T2 sequence (P15692 27-191 isoform P15692-4): T1 sequence (P15692 27-191 isoform P15692-4)
Experimental: The nitrocellulose membrane was blocked using Sea-Block PP82-41 (East Coast Biologics, Berwick, Me.), and probed with primary antibodies using a mini-blotter apparatus (Immunetics, Cambridge, Mass.). The membranes were developed after incubation with the appropriate peroxidase-conjugated secondary antibody by ECL enhanced chemiluminescence.
Western blot analyses of anti-VEGF antibodies were conducted by separating VEGF165 in the presence of 5% FCS using SDS-PAGE on a 12% gel and analyzing by a standard western blotting protocol using ECL detection. The primary antibodies were incubated with the nitrocellulose membrane using a multi-lane mini-blotter apparatus.

[3] = system: VEGF-mediated growth of ABAE cells; assay: Endothelial cell growth assay (MTS), VEGF-mediated growth of ABAE cells; assay type: cell-based, bovine; conditions: summary table
Experimental: ABAE cells were grown in the presence of the various indicated antibodies and 0.5 nM VEGF. Growth after 4 days was determined colorimetrically by the enzymatic conversion of MTS (Owen's reagent) to a yellow formazan. […] Background was determined by growing cells without VEGF or antibody and was subtracted from the control and sample wells.
Adult bovine aortic endothelial (ABAE) cells were plated into 96-well tissue culture plates at 1500 cells/well and grown in the presence of 0.5 nM human VEGF with the addition of the various sample and control antibodies. Control wells received media with or without VEGF.
After 4 days of incubation, the cells were quantified by an MTS (3-(4,5-dimethylthiazol-2-yl)-5-(3-carboxylmethoxyphenyl)-2-(4-sulfophenyl)-2H-tetrazolium, inner salt) conversion assay, where MTS conversion to a formazan is proportional to cell number and can be followed by absorbance at 490 nm (Cell Titer 96 AQueous One Solution Cell Proliferation Assay, Promega, Madison, Wis.). The assay was performed according to the manufacturer's instructions.
Cell growth was estimated by subtracting the MTS conversion in cultures to which VEGF was not added. Results were expressed as a percentage of the MTS conversion in control cultures to which only VEGF was added (Buttke et al., 1993).

KDR = assay: 125I-VEGF binding studies on KDR expressing endothelial cells (ABAE cells); set-up: species or system bovine
[4] = system: VEGFR2 (KDR/Flk-1), sFlk-1-biotin; assay: ELISA: VEGF binding to VEGFR2-coated wells in presence of antibody; set-up: species or system mouse
Experimental: FIG. 2. […] The plate was then incubated with rabbit anti-VEGF (A-20, Santa Cruz Biotechnology, Inc.) at 1 μg/ml and developed using a peroxidase conjugated goat anti-rabbit antibody. Assays were performed in triplicate. Mean percent binding in the absence of antibody is shown, together with the standard deviation.
The assay was also performed by coating wells of a microtiter plate with either control or test IgG.

A673 rhabdomyosarcoma = assay: In vivo tumor growth inhibition, newly-implanted A673 rhabdomyosarcoma; set-up: species or system nu/nu mice
Experimental: FIG. 3A and FIG. 3B. […] FIG. 3A: 1×10^7 NCI-H358 NSCLC cells were injected subcutaneously into nu/nu mice on day 0. FIG. 3B: 5×10^6 A673 rhabdomyosarcoma cells were injected subcutaneously into nu/nu mice on day 0. Mice were injected i.p. with the indicated IgG on day 1 and 2 times/week thereafter. […] Tumors were measured 2-3 times per week. Mean and standard error is shown for the duration of the study in FIG. 3A, while data for the last day of the study (day 26) is shown in FIG. 3B.
Nu/nu mice were injected subcutaneously with either 1×10^7 NCI-H358 NSCLC cells or 5×10^6 A673 rhabdomyosarcoma cells on day 0. […] The tumors were then measured twice per wk for a period of approximately six wk for the NCI-H358 bearing mice and four wk for the A673 bearing mice. Tumor volume was calculated according to the formula: volume=L×W×H, where L=length, W=width, H=height.

2C3: anti-VEGF monoclonal IgG2a,k from hybridoma ATCC PTA 1595; blocks VEGF binding to VEGFR2 but not VEGFR1
Predominant Reactivity [1]: VEGF
Reactivity with VEGF on western blot [2]: react with denatured VEGF121 and VEGF165 under reducing and non-reducing conditions
Blocks VEGF-induced proliferation [3]: Yes
Blocking of 125I-VEGF binding to KDR (KDR): blocks VEGF from binding to KDR in a concentration dependent manner
Reduction in VEGF binding to VEGFR2 ([4]; 100 fold molar excess over VEGF): about 74%
VEGF bound to VEGFR2-coated wells, % of amount bound in absence of antibody ([4]; 1000-fold molar excess over VEGF): ~19%
Reduction in VEGF binding to VEGFR2 ([4]; 1000 fold molar excess over VEGF): about 81%
Blocks VEGF from binding to VEGFR2 ([4]; summary table): Yes
Final tumor volume (A673 rhabdomyosarcoma; 100 μg i.p. 2 times per wk from day 1, controls approximately 1000 mm^3): approximately 150 mm^3
Effect on growth of A673 tumors, lower doses (A673 rhabdomyosarcoma; 10 or 1 μg twice per wk): did slow the growth of A673 tumors
